Data: patent publication US20250000872A1, “FORMULATIONS AND DOSING REGIMENS FOR RIP1 KINASE INHIBITORS FOR TREATING AUTOIMMUNE AND INFLAMMATORY DISEASES” (Eli Lilly and Company, priority 2023, published 2025)

How the values were obtained:
CYP2D6 = CYP2D6 (Homo sapiens, UniProt P10635); experiment: In vitro drug-drug interaction studies: CYP2D6 inhibition; assay type: in vitro ADME; details: based upon in vitro studies
rats [1] = experiment: 6-month repeat-dose toxicity study in rats; assay type: in vivo
[2] = 6-month repeat-dose toxicity study in rats; assay type: in vivo; details: rat, in vivo, po, 1000 mg/kg/day
[3] = Phase I first-in-human study: safety, tolerability and PK of single and multiple doses in healthy volunteers; assay type: in vivo; details: for AUC(0-t): human, estimated from AUC0-∞ at single dose of 125 mg in phase 1 study Part 3
Experimental: The study was conducted in 3 parts: single-ascending doses (Part 1A), multiple-ascending doses (Part 2), and formulation assessment (Part 1B and Part 3).

CYP3A = experiment: Preliminary in vitro CYP3A induction data; assay type: in vitro ADME
From the text: Investigators should be aware of participants' concomitant use of CYP3A substrates.

rats [4] = experiment: Rat embryofetal development study; assay type: in vivo
[5] = Rat embryofetal development study; assay type: in vivo; details: female, rat, in vivo, po; plasma toxicokinetics on Gestational Day 17, 1000 mg/kg/day; read-out: AUC0-24 at rat EFD NOEL
[6] = Phase 1 open-label single-dose fixed-sequence study: solid dispersion oral suspension vs crystalline freebase tablet, healthy participants; assay type: in vivo, human; details: amorphous vs corresponding crystalline preparation
From the text: Each participant received both formulations in 2 separate dosing periods.
The median tmax was longer for the tablet compared with the oral suspension. The geometric mean t1/2 was similar between formulations. […] Between-participant CV for AUC (0-tlast), AUC (0-∞), and Cmax was higher for the tablet compared with the oral suspension.

CYP2C8 = molecular target: T1, CYP2C8 (Homo sapiens, UniProt P10632); experiment: In vitro drug-drug interaction studies: CYP2C8 inhibition; assay type: in vitro ADME; details: based upon in vitro studies
T1 sequence (P10632 1-490): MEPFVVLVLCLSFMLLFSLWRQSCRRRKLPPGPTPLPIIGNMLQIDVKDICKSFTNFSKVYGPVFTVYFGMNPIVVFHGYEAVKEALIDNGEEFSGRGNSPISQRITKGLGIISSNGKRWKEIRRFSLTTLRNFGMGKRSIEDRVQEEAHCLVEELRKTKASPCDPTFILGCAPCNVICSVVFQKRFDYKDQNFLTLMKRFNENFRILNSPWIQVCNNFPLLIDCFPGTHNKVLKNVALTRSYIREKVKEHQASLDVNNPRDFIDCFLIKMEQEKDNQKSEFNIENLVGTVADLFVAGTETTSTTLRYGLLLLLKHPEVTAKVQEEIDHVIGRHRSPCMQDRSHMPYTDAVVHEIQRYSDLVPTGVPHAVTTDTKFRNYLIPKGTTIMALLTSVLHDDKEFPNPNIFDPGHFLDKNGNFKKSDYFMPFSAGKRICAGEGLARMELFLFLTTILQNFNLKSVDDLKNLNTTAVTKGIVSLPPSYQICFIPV

OATP1B3 = molecular target: T2, OATP1B3 (Homo sapiens, UniProt Q9NPD5); experiment: In vitro drug-drug interaction studies: OATP1B3 transporter inhibition; assay type: in vitro ADME; details: based upon in vitro studies
T2 sequence (Q9NPD5 1-702): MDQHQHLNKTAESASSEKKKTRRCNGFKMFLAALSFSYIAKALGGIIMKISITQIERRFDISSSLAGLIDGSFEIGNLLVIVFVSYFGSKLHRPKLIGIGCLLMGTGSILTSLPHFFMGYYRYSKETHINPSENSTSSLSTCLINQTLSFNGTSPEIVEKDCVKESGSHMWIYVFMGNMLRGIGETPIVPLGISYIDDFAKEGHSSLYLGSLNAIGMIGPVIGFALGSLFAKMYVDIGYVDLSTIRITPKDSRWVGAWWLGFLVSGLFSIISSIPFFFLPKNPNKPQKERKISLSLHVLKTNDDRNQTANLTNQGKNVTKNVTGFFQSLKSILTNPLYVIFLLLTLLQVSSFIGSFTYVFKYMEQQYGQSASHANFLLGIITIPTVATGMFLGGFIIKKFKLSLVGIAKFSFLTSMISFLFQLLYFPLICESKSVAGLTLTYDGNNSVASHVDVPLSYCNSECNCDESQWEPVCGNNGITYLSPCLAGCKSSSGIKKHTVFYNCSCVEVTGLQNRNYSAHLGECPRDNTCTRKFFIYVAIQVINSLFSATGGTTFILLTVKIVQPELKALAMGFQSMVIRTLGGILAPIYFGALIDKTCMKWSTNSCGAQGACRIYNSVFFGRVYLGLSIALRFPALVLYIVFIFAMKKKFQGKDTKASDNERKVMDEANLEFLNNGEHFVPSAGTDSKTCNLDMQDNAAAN

CYP2C9 = CYP2C9 (Homo sapiens, UniProt P11712); experiment: In vitro drug-drug interaction studies: CYP2C9 inhibition; assay type: in vitro ADME; details: based upon in vitro studies
Sequence of CYP2C9 (P11712 whole entry): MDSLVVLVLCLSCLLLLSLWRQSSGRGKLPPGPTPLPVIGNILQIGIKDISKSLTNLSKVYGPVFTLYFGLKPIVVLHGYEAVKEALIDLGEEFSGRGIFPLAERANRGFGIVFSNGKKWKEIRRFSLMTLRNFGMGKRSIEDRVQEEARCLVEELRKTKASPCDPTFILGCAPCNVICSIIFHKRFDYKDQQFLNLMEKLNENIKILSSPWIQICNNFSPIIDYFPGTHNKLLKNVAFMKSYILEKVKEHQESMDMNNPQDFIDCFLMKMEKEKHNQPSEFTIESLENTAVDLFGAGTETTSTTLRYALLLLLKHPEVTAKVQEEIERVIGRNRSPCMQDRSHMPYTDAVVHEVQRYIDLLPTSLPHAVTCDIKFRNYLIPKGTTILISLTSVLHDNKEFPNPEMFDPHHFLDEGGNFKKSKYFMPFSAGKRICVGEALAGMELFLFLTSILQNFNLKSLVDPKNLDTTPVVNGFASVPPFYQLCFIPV

CYP3A5 = experiment: In vitro drug-drug interaction studies: CYP3A5 induction; assay type: in vitro ADME; details: based upon in vitro studies
[7] = AUC in animals/(predicted) AUC in humans

Sequence of CYP2D6 (P10635 whole entry): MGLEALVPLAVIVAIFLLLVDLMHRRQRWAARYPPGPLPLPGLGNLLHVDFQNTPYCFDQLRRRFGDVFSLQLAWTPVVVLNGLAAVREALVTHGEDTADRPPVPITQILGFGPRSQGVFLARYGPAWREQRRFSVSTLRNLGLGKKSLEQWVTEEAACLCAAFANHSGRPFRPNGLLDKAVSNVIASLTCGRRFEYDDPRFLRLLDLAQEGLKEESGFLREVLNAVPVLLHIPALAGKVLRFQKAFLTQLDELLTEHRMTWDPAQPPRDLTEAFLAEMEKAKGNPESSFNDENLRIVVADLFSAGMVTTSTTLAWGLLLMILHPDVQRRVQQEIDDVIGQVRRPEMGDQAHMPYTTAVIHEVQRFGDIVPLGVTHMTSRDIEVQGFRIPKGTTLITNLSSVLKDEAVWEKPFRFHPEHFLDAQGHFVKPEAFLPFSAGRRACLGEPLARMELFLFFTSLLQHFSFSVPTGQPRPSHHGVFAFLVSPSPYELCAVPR

With `CN1C(=O)[C@@H](NC(=O)c2n[nH]c(Cc3ccccc3)n2)COc2ccc(C#CC(C)(C)O)cc21` [Compound I, (S)-5-benzyl-N-(7-(3-hydroxy-3-methylbut-1-yn-1-yl)-5-methyl-4-oxo-2,3,4,5-tetrahydrobenzo[b][1,4]oxazepin-3-yl)-1H-1,2,4-triazole-3-carboxamide] the “inhibition of drugs metabolized by CYP2D6” value (CYP2D6) was “may inhibit”, the “Margin of Safety, rat NOAEL vs human 50 mg” value (rats [1]; [7]) was 67 X and the “Margin of Safety, rat NOAEL vs human 125 mg” value (rats [1]; [7]) was 27 X. For the same molecule, the “toxicology findings in rats” value (rats [1]; toxicology studies up to 6 months) was “minimal effects”, the AUC(0-t) [2] was 1080 µg·h/mL and the Exposure versus dose ([3]; dose range of 12 to 1000 mg) was “increased in a proportional manner”. For the same molecule, the AUC(0-t) ([3]; plasma, oral, 0.7 mg/kg/day, read-out: AUC0-24, human dose 50 mg) was 16000 ng·h/mL, the AUC(0-t) ([3]; plasma, oral, 1.8 mg/kg/day, read-out: AUC0-24, human dose 125 mg) was 40100 ng·h/mL and the half-life ([3]; plasma, oral, human subjects) was 780 to 900 min. The “induction of CYP3A” value (CYP3A) was “weak inducer”, the “Margin of Safety, rat EFD NOEL vs human 50 mg” value (rats [4]; [7]) was 70 X and the “Margin of Safety, rat EFD NOEL vs human 125 mg” value (rats [4]; [7]) was 28 X. For the same molecule, the “developmental and reproductive toxicology outcome, rats” value (rats [4]; concerns for women of childbearing potential) was “did not reveal any concerns”, the “Rat EFD NOEL dose” value (rats [4]; rat embryofetal development study) was 1000 mg/kg/day and the AUC(0-t) [5] was 1120 µg·h/mL. For the same molecule, the “bioavailability, amorphous state (solid dispersion) over crystalline form” value [6] was “significantly improved”, the “inhibition of drugs metabolized by CYP2C8” value (CYP2C8) was “may inhibit” and the “inhibition of substrates of OATP1B3 transporter” value (OATP1B3) was “may also inhibit”. For the same molecule, the “inhibition of drugs metabolized by CYP2C9” value (CYP2C9) was “may inhibit” and the “induction of CYP3A5” value (CYP3A5) was “may induce”.
